These results are taken from paper PMC7203344, “Sirtuin 1 Inhibiting Thiocyanates (S1th)—A New Class of Isotype Selective Inhibitors of NAD^+ Dependent Lysine Deacetylases” (Frontiers in Oncology, 2020).

As usually defined, the inhibition is how much of the control response was suppressed. Read a high inhibition as strong suppression.

One assay concerns the target T1, human Sirt2 (Homo sapiens, UniProt Q8IXJ6).
T1 construct: made in house; host or cells: E. coli BL21 Star (DE3)
T1 sequence (Q8IXJ6 56-356): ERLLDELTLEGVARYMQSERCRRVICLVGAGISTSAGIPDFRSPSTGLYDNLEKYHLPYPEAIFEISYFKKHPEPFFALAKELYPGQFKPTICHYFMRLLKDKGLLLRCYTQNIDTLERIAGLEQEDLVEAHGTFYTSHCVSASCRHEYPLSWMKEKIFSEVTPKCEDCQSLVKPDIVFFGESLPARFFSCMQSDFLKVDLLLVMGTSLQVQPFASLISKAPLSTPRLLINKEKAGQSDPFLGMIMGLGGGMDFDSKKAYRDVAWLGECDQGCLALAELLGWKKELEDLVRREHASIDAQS
As to the kind of experiment: Homogeneous ZMAL-based fluorescence assay, Sirt2. It is filed as biochemical. The settings on record: 4th round. As to the method:
(§1) Recombinant human Sirt5_37−310 was purchased readily in Tris Buffer [25 mM Tris, 100 mM NaCl, 5 mM DTT, 10% glycerol (v/v)] from Enzo Life Sciences (NY, USA). Human Sirt3_118−395 was expressed and purified as described previously ([54]). For expression of human Sirt1_134−747 and Sirt2_56−356 chemically competent cells of E. coli BL21 Star (DE3) were transformed with the expression vectors pET30S-hSirt1_134−747 or pET30S-hSirt2_56−356. Bacteria were grown at 37°C in 2×YT medium supplemented with 50 μg·mL^−1 of kanamycin to an OD600 of 0.6. Then isopropyl-β-D-1-thiogalactopyranoside (IPTG) was added to a final concentration of 1 mM to induce gene expression. After further cultivation at 20°C for 12 h, the cells were harvested by centrifugation for 15 min at 5,000 g. The cells were resuspended in lysis buffer [100 mM Tris/HCl buffer at pH 8.0, 150 mM NaCl and 10% (v/v) glycerol] and disrupted by ultrasonication (Branson Digital Sonifier 250) at 70% amplitude for 10 min (3 s working, 10 s pause). The crude extract was cleared by centrifugation at 100,000 g for 1 h, and the supernatant was loaded onto a Strep-Tactin Superflow cartridge (5 ml bed volume, IBA Lifescience, Germany). Target proteins were eluted with lysis buffer containing 5 mM D-Desthiobiotin (IBA Lifescience, Germany) and further separated by size-exclusion chromatography (Superdex S200 26/60, GE Healthcare, IL, USA) equilibrated in Tris/HCl buffer (20 mM, 150 mM NaCl, pH 8.0). Pure protein was concentrated by ultrafiltration, flash-frozen in liquid nitrogen and stored at −80°C until further use. Identity as well as purity were verified by SDS-PAGE ([55]) and protein concentration was determined by the bicinchoninic acid (BCA) method, using bovine serum albumin (BSA) as a standard ([56]). Deacetylase activity was confirmed to be NAD^+-dependent and could be inhibited with the physiological sirtuin inhibitor nicotinamide.
All compounds were tested in the trypsin-coupled high-throughput ZMAL-assay in black 96-well plates (OptiPlateTM−96F, black, 96 well, Pinch bar design, PerkinElmer, USA), using ZMAL (Z-Lys(acetyl)-AMC) as a substrate ([57]). Sirt1_134−747, Sirt2_56−356, and Sirt3_118−395 were mixed with 5 μL substrate (10.5 μM final assay concentration, diluted from a […] stock in DMSO) and 3 μL Inhibitor in DMSO at various concentrations or DMSO as a control [final DMSO concentration 5% (v/v)]. The mixture was supplemented with assay buffer (50 mM Tris/HCl, 137 mM NaCl, 2.7 mM KCl, 1 mM MgCL2, pH 8.0) to a total volume of 55 μL. Enzyme concentration was adjusted to get a final conversion of 20–30%. Addition of 5 μL NAD^+ (6 mM in assay buffer, final assay concentration of 500 μM) initiated the catalytic reaction and the plates were incubated at 37°C for 4 h with agitation at 140 rpm. The catalytic reaction was stopped by addition of 60 μL stop solution [50 mM Tris, 100 mM NaCl, 6.7% (V/V) DMSO, 5.5 U/μL trypsin, 8 μM nicotinamide, pH 8.0]. The plate was again incubated at 37°C and 140 rpm for 20 min to release free AMC from the deacetylated substrate by trypsin digestion. Afterwards, fluorescence intensity was measured in a microplate reader (λEx = 390 nm, λEm = 460 nm, BMG POLARstar Optima, BMG Labtech, Germany). An enzyme-free blank control and a 100% conversion control containing AMC instead of ZMAL were measured in addition. Inhibition was calculated in % in relation to a DMSO control after blank signal subtraction and IC50 values were determined using a non-linear regression to fit the dose-response curve with OriginPro 9G (OriginLab, USA). Pre-tests as well as IC50 determination was carried out at least twice in duplicates.

The next assay deals with T2, human Sirt5 (Homo sapiens, UniProt Q9NXA8).
T2 construct: Recombinant human Sirt5_37−310 was purchased readily in Tris Buffer; purchased Enzo Life Sciences (NY, USA)
T2 sequence (Q9NXA8 37-310): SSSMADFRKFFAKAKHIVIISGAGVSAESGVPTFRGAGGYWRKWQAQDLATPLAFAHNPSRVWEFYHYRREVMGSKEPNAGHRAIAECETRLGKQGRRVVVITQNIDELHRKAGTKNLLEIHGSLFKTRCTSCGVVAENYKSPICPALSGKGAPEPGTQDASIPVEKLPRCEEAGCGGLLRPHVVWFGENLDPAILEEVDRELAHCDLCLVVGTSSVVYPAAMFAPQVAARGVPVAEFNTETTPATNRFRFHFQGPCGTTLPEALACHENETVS
As to the kind of experiment: Homogeneous ZKsA-based fluorescence assay for Sirt5. It is filed as biochemical. The settings on record: inhibition tested @ 10 μM. As for the experimental part:
as §1
Inhibition of Sirt5 was measured using a general procedure described before with small modifications ([58]). Sirt5 was purchased from Enzo Life Science (NY, USA) and used as received. Z-Lys(succ)-aminomethyl coumarin (ZKsA) was used as a substrate for Sirt5 mediated desuccinylation. In black 384-well non-binding plates (Greiner Bio-One, Monroe, NC) Sirt5 was mixed with 2 μL of ZKsA (1 mM stock solution in assay buffer [(50 mM Tris·HCl, 137 mM NaCl, 2.7 mM KCl, 1 mM MgCl2, pH 8.0, and 0.1% PEG8000), 100 μM final assay concentration], 1 μL of Inhibitor dissolved in DMSO or DMSO as a control [final DMSO concentration 5% (v/v)], 2 μL NAD^+ (5 mM stock solution in assay buffer, final assay concentration 500 μM) and filled up to a total volume of 20 μL with assay buffer. The mixture was incubated for 1 h at 37°C and 140 rpm before 4 μL of trypsin solution (50 mM Tris, 100 mM NaCl, pH 8.0, 6 mg/mL trypsin buffer, 1 mg/mL final assay concentration) was added to stop the enzymatic reaction. After 2 min of incubation at 37°C and 140 rpm fluorescence intensity was detected as described above. Sirt5 concentration was adjusted to 15–30% substrate conversion. A negative control without enzyme and a positive control containing AMC instead of ZKsA were performed as well. Inhibition was calculated in % in relation to a DMSO control and was determined in triplicates.

In turn, `N#CSc1cc(SC#N)c(N)nc1N` [PR-619, reference compound] had an inhibition at 50 µM against human Sirt2 of 36%. The same compound gave an inhibition at 10 µM on human Sirt5 of 28%.

Regarding `N#CSc1cccc(NC(=O)[C@H]2CC=CC[C@H]2C(=O)O)c1` [S1th 10], the inhibition at 50 µM against human Sirt2 is less than 10%. Also, the inhibition at 10 µM against human Sirt5 is less than 10%.

Compound `CCCCNC(=O)Nc1cccc(SC#N)c1` [S1th 11] showed an inhibition at 50 µM at human Sirt2 of less than 10%. The compound further yielded an inhibition at 10 µM at human Sirt5 of less than 10%.

`COc1ccc(SC#N)cc1OCC(=O)N(CCC#N)CCC#N` [S1th 12] gave an inhibition at 50 µM against human Sirt2 of less than 10%. Further, the inhibition at 10 µM at human Sirt5 is less than 10%.

`N#CSc1cccc(NS(=O)(=O)c2ccc3c(c2)OCCO3)c1` [S1th 13]: the inhibition at 50 µM at human Sirt2 is less than 10%. At human Sirt5, this compound had an inhibition at 10 µM of less than 10%.
